Measured values from PubChem BioAssay AID1590 (NINDS Approved Drug Screening Program, 2009).
Results filed as inconclusive are left out.

What follows are compounds tested on PC12 inducible Htt-N63-148Q toxicity rescue (assay: rescue from Htt-N63-148Q induced toxicity, dose response, PC12 cells, inducible expression, ROSShtt (AID 1590)).

`C=C1c2c(Cl)ccc(O)c2C(O)=C2C(=O)[C@]3(O)C(O)=C(C(N)=O)C(=O)[C@@H](N(C)C)[C@@H]3[C@@H](O)[C@H]12` was tested. Which EC50 did it give?
Its EC50 is 10 nM.

Which EC50 does the source give for `CN(C)[C@@H]1C(=O)C(C(N)=O)=C(O)[C@@]2(O)C(=O)C3=C(O)c4c(O)cccc4[C@@](C)(O)[C@H]3C[C@@H]12` here?
The EC50 was 100 nM.

`CCCNCC(O)COc1ccccc1C(=O)CCc1ccccc1` (stereo unspecified) was tested. Which EC50 did it give?
Its EC50 is 10000 nM.

How did the EC50 turn out when `CN(C)[C@@H]1C(=O)C(C(N)=O)=C(O)[C@@]2(O)C(=O)C3=C(O)c4c(O)ccc(Cl)c4[C@@H](O)[C@H]3C[C@@H]12` was run?
The EC50 was 1000 nM.

`O=C(O)C1CCCNC1` (stereo unspecified) was tested. Which EC50 did it give?
Its EC50 is 10000 nM.

With `CCN(Cc1ccncc1)C(=O)C(CO)c1ccccc1` (stereo unspecified) as the compound, how does the EC50 read?
The EC50 was 10 nM.

Which EC50 does the source give for `CN(C)[C@@H]1C(=O)C(C(N)=O)=C(O)[C@@]2(O)C(=O)C3=C(O)c4c(O)cccc4[C@@](C)(O)[C@H]3[C@H](O)[C@@H]12` here?
The EC50 was 1000 nM.

How did the EC50 turn out when `CC(C)NCC(O)c1ccc(O)c(O)c1` (stereo unspecified) was run?
The EC50 was 15000 nM.

For `N[C@H](C(=O)O)[C@@H]1CC(Cl)=NO1`, which EC50 is on record?
The EC50 was 10000 nM.

For `COc1c(C)c2c(c(O)c1C/C=C(\C)CCC(=O)O)C(=O)OC2`, which EC50 is on record?
Its EC50 is 10000 nM.

With `C=C1c2cccc(O)c2C(O)=C2C(=O)[C@]3(O)C(O)=C(C(N)=O)C(=O)[C@@H](N(C)C)[C@@H]3[C@@H](O)[C@H]12` as the compound, how does the EC50 read?
Its EC50 is 10 nM.
